Test results: patent US20250230147A1, “LACTAMS AS CBL-B INHIBITORS” (Genentech, Inc., priority 2021, published 2025)
Where a name gives a salt, the structure may show the parent alone.

How the values were obtained:
c-Cbl = c-Cbl (Homo sapiens (Human), UniProt P22681); assay: C-Cbl LCK Ub TR-FRET assay (c-cbl Lck HTRF); format: biochemical; conditions: for (fold-selectivity): C-cbl Lck HTRF IC50 relative to Cbl-b Lck HTRF IC50
In short: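 After the ubiquitination reaction, detection mixture was added and plates incubated 20 min at room temperature before reading. IC50 values were calculated with wells lacking LCK as the low control and DMSO as the high control.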

Cbl-b = Cbl-b (Homo sapiens (Human), UniProt Q13191); assay: Cbl-b LCK Ub TR-FRET assay (Cbl-b Lck HTRF); format: biochemical
Chain of Cbl-b (Q13191 40-426): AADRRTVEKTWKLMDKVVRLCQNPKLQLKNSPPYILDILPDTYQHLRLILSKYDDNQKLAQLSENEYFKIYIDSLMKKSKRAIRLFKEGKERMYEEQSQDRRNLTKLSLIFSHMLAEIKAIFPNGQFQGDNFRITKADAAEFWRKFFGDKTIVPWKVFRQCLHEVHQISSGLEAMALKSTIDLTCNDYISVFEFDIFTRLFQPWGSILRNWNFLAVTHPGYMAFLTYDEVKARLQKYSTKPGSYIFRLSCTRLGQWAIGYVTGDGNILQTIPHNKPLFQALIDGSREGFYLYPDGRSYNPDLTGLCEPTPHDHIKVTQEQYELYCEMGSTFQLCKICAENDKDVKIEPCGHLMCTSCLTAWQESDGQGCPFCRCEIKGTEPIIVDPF
In short: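 Biotin-Cbl-b preincubated with compound (10-point 3-fold series) 60 min, then His-LCK with 1 mM ATP (2× mixture) added for 90 min at room temperature. Ubiquitination detected by TR-FRET using HA-ubiquitin/UBE2D2 adduct, anti-HA-D2 and streptavidin-Eu; IC50 normalised to no-LCK and DMSO controls.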

Chain of c-Cbl (P22681 47-435): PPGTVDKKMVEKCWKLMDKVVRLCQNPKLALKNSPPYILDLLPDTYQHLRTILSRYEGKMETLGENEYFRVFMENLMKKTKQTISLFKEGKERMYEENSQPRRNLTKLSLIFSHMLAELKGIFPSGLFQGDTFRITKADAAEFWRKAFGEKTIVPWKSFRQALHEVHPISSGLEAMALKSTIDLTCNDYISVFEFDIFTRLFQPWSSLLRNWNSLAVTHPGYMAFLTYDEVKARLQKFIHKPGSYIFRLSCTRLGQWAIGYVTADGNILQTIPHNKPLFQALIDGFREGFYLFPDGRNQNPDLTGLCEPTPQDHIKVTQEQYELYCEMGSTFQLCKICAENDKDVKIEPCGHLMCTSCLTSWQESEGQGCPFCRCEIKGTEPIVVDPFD

IC50 (c-Cbl) [µM]	(fold-selectivity) (c-Cbl)	IC50 (Cbl-b) [µM]	SMILES
0.13	2.1x	0.062	Cn1cnnc1[C@@H](F)C1(c2cccc(N3Cc4c(cc(CN5CC(C)(O)C5)cc4C(F)(F)F)C3=O)c2)CC(F)(F)C1 [Compound 52, (S)-2-(3-(3,3-difluoro-1-(fluoro(4-methyl-4H-1,2,4-triazol-3-yl)methyl)cyclobutyl)-phenyl)-6-((3-hydroxy-3-methylazetidin-1-yl)methyl)-4-(trifluoromethyl)isoindolin-1-one]
0.035	(0.80x)	0.043	Cn1cnnc1CC1(c2cccc(N3Cc4c(cc(CN5CCN[C@H](C6CC6)C5)cc4C(F)(F)F)C3=O)c2)CC(F)(F)C1 [Compound 430, (R)-6-((3-cyclopropylpiperazin-1-yl)methyl)-2-(3-(3,3-difluoro-1-((4-methyl-4H-1,2,4-triazol-3-yl)methyl)cyclobutyl)phenyl)-4-(trifluoromethyl)isoindolin-1-one]
0.72	2.3x	0.31	Cn1cnnc1[C@@H](F)C1(c2cccc(N3Cc4c(cc(CN5CCOCC5)cc4C(F)(F)F)C3=O)c2)COC1 [Compound 89, (S)-2-(3-(3-(fluoro(4-methyl-4H-1,2,4-triazol-3-yl)methyl)oxetan-3-yl)phenyl)-6-(morpholinomethyl)-4-(trifluoromethyl)isoindolin-1-one]
0.053	(0.91x)	0.058	Cn1cnnc1[C@@H](F)C1(c2cccc(N3Cc4c(cc(CN)cc4C(F)(F)F)C3=O)c2)CCC1 [Compound 387, (S)-6-(aminomethyl)-2-(3-(1-(fluoro(4-methyl-4H-1,2,4-triazol-3-yl)methyl)cyclobutyl)phenyl)-4-(trifluoromethyl)isoindolin-1-one]
0.29	(1.6x)	0.18	Cn1cnnc1CC1(c2cc(OC3CCCC3)cc(N3Cc4c(cc(CNC5(C)CCC5)cc4C(F)(F)F)C3=O)c2)COC1 [Compound 479, 2-(3-(cyclopentyloxy)-5-(3-((4-methyl-4H-1,2,4-triazol-3-yl)methyl)oxetan-3-yl)phenyl)-6-(((1-methylcyclobutyl)amino)methyl)-4-(trifluoromethyl)isoindolin-1-one]
0.069	(1.3x)	0.054	CC[C@H]1CC[C@@H](c2cc3c(c(C(F)(F)F)c2)CN(c2cccc(C4(Cc5nncn5C)CC(F)(F)C4)c2)C3=O)N1 [Compound 475, 2-(3-(3,3-difluoro-1-((4-methyl-4H-1,2,4-triazol-3-yl)methyl)cyclobutyl)phenyl)-6-((2S,5S)-5-ethylpyrrolidin-2-yl)-4-(trifluoromethyl)isoindolin-1-one]
0.014	(0.97x)	0.015	Cn1cnnc1CC1(c2cccc(N3Cc4c(cc(CNC5(C)CCC5)c(F)c4C(F)(F)F)C3=O)c2)CC(F)(F)C1 [Compound 244, 2-(3-(3,3-difluoro-1-((4-methyl-4H-1,2,4-triazol-3-yl)methyl)cyclo-butyl)phenyl)-5-fluoro-6-(((1-methylcyclobutyl)amino)methyl)-4-(trifluoromethyl)isoindolin-1-one]
0.38	2.1x	0.18	CCC1(O)CN(Cc2cc3c(c(C(F)(F)F)c2)CN(c2cccc(C4([C@H](F)c5nncn5C)COC4)c2)C3=O)C1 [Compound 168, (S)-6-((3-ethyl-3-hydroxyazetidin-1-yl)methyl)-2-(3-(3-(fluoro(4-methyl-4H-1,2,4-triazol-3-yl)methyl)oxetan-3-yl)phenyl)-4-(trifluoromethyl)isoindolin-1-one]
0.42	(1.2x)	0.36	CC(C)N(C)Cc1cc2c(c(C(F)(F)F)c1)CN(c1cccc(C3([C@@H](F)c4nncn4C)CC(F)(F)C3)c1)C2=O [Compound 419, (R)-2-(3-(3,3-difluoro-1-(fluoro(4-methyl-4H-1,2,4-triazol-3-yl)methyl)cyclobutyl)phenyl)-6-((isopropyl(methyl)amino)methyl)-4-(trifluoromethyl)isoindolin-1-one]
0.34	1.6x	0.21	Cn1cnnc1[C@@H](F)C1(c2cccc(N3Cc4c(cc(CN)cc4C(F)(F)F)C3=O)c2)COC1 [Compound 69, (S)-6-(aminomethyl)-2-(3-(3-(fluoro(4-methyl-4H-1,2,4-triazol-3-yl)methyl)oxetan-3-yl)phenyl)-4-(trifluoromethyl)isoindolin-1-one]
0.016	(0.57x)	0.028	Cn1cnnc1CC1(c2cc(-c3ccc4ccccc4c3)nc(N3Cc4c(cc(CNC5(C)CCC5)cc4C(F)(F)F)C3=O)c2)CCC1 [Compound 350, 2-(4-(1-((4-methyl-4H-1,2,4-triazol-3-yl)methyl)cyclobutyl)-6-(naphthalen-2-yl)pyridin-2-yl)-6-(((1-methylcyclobutyl)amino)methyl)-4-(trifluoromethyl)isoindolin-1-one]
1.2	(4.8x)	0.23	Cn1cnnc1CC1(c2cc(NC3CC=CC3)nc(N3Cc4c(cccc4C(F)(F)F)C3=O)c2)COC1 [Compound 484, 2-(6-(cyclopent-3-en-1-ylamino)-4-(3-((4-methyl-4H-1,2,4-triazol-3-yl)methyl)oxetan-3-yl)pyridin-2-yl)-4-(trifluoromethyl)isoindolin-1-one]
0.0079	(0.95x)	0.0083	CC(C)Nc1cc(N2Cc3c(cc(CNC4(C)CCC4)cc3C(F)(F)F)C2=O)cc(C2(Cc3nncn3C)CCC2)c1 [Compound 462, 2-(3-(isopropylamino)-5-(1-((4-methyl-4H-1,2,4-triazol-3-yl)methyl)cyclobutyl)phenyl)-6-(((1-methylcyclobutyl)amino)methyl)-4-(trifluoromethyl)isoindolin-1-one]
0.032	(0.97x)	0.034	Cn1cnnc1CC1(c2cccc(N3Cc4c(cc(CN5CCNC[C@H]5C5CC5)cc4C(F)(F)F)C3=O)c2)CC(F)(F)C1 [Compound 436, (R)-6-((2-cyclopropylpiperazin-1-yl)methyl)-2-(3-(3,3-difluoro-1-((4-methyl-4H-1,2,4-triazol-3-yl)methyl)cyclobutyl)phenyl)-4-(trifluoromethyl)isoindolin-1-one]
0.091	2.2x	0.041	Cn1cnnc1[C@H](F)C1(c2cccc(N3Cc4c(cc(CN5CC(CCO)C5)cc4C(F)(F)F)C3=O)c2)COC1 [Compound 177, (R)-2-(3-(3-(fluoro(4-methyl-4H-1,2,4-triazol-3-yl)methyl)oxetan-3-yl)phenyl)-6-((3-(2-hydroxyethyl)azetidin-1-yl)methyl)-4-(trifluoromethyl)isoindolin-1-one]
0.093	1.5x	0.064	Cn1cnnc1[C@H](F)C1(c2cccc(N3Cc4c(cc(CN5CC(C)(CO)C5)cc4C(F)(F)F)C3=O)c2)CC1 [Compound 126, (R)-2-(3-(1-(fluoro(4-methyl-4H-1,2,4-triazol-3-yl)methyl)cyclopropyl)phenyl)-6((3-(hydroxymethyl)-3-methylazetidin-1-yl)methyl)-4-(trifluoromethyl)isoindolin-1-one]
0.034	(1.2x)	0.028	Cn1cnnc1CC1(c2cccc(N3Cc4c(cc(CNC(C)(C)CF)cc4C(F)(F)F)C3=O)c2)CC(F)(F)C1 [Compound 372, 2-(3-(3,3-difluoro-1-((4-methyl-4H-1,2,4-triazol-3-yl)methyl)cyclobutyl)phenyl)-6-(((1-fluoro-2-methylpropan-2-yl)amino)methyl)-4-(trifluoromethyl)isoindolin-1-one]
0.33	1.7x	0.19	Cn1cnnc1[C@@H](F)C1(c2cccc(N3Cc4c(cc(CN5CC(C)(O)C5)cc4C(F)(F)F)C3=O)c2)COC1 [Compound 162, (S)-2-(3-(3-(fluoro(4-methyl-4H-1,2,4-triazol-3-yl)methyl)oxetan-3-yl)phenyl)-6-((3-hydroxy-3-methylazetidin-1-yl)methyl)-4-(trifluoromethyl)isoindolin-1-one]
0.0068	(0.83x)	0.0082	Cn1cnnc1[C@H](F)C1(c2cccc(N3Cc4c(Br)cc(CNC5(C)CCC5)cc4C3=O)c2)COC1 [Compound 471, (R)-4-bromo-2-(3-(3-(fluoro(4-methyl-4H-1,2,4-triazol-3-yl)methyl)oxetan-3-yl)phenyl)-6-(((1-methylcyclobutyl)amino)methyl) isoindolin-1-one]

SMILES	IC50 (c-Cbl) [µM]	(fold-selectivity) (c-Cbl)	IC50 (Cbl-b) [µM]
Cn1cnnc1[C@H](F)C1(c2cccc(N3Cc4c(cc(CN)cc4C(F)(F)F)C3=O)c2)CC(F)(F)C1.O=CO [Compound 393, (R)-6-(aminomethyl)-2-(3-(3,3-difluoro-1-(fluoro(4-methyl-4H-1,2,4-triazol-3-yl)methyl)cyclobutyl)phenyl)-4-(trifluoromethyl)isoindolin-1-one formate]	0.17	(1.3x)	0.13
CC1CCN(CCNc2cc(C3(Cc4nncn4C)CCC3)cc(N3Cc4c(cc(CNC5(C)CCC5)cc4C(F)(F)F)C3=O)n2)CC1 [Compound 309, 2-(4-(1-((4-methyl-4H-1,2,4-triazol-3-yl)methyl)cyclobutyl)-6-((2-(4-methylpiperidin-1-yl)ethyl)amino)pyridin-2-yl)-6-(((1-methylcyclobutyl)amino)methyl)-4-(trifluoromethyl)isoindolin-1-one formate]	0.52	–	0.54
